row,SMILES,melting point [°C]
1,COCOc1ccc(-c2ncc3ccc(-c4csc(CN5CCOCC5)c4)nc3n2)cc1,> 268
2,CN1Cc2c(Cl)ncn2-c2ccccc2C1=O,193 to 194
3,C[C@@H](NC(=O)c1[nH]c2ccc(Cl)cc2c1S(=O)(=O)c1ccccc1)c1ccccc1,149
4,CN1CCN(CNc2nc(OCc3ccc(F)cc3)ncc2F)CC1,125 to 126
5,CC(C)c1cccc(C(C)C)c1NC(=O)Nc1c(-c2cccc(O)c2)c2cccnc2n(C)c1=O,152 to 155
6,CCOC(=O)c1sc(OCC)nc1C(F)(F)F,30.5 to 31.5
7,CCN(CC)C(=O)c1ccc(C(=C2CCNCC2)c2cccc(OC)c2)cc1,> 90
8,COc1ccc2cc([C@H](C)C(=O)OCCCN3C(=O)OC[C@H]3C(C)(C)SN=O)ccc2c1,116 to 117
9,COC(=O)CCc1ccc(OCCC2Oc3ccccc3N(Cc3cccc(Cl)c3)C2=O)cc1 (stereo not drawn),88 to 89
10,CN1CCC(n2ccc3ccccc32)CC1,58
11,O=C(Nc1ccc(F)cc1)C1=C(C(=O)Nc2cc(OC3CCCC3)c(Cl)cc2F)CCCC1,209 to 210
12,CC(C(=O)OC(C)(C)C)c1ccc(N2Cc3ccc(Br)cc3C2=O)cc1 (stereo not drawn),164 to 165
13,CC(=O)CC1CC2CN(C(=O)c3ccccc3)c3cccc(c32)C1=O (stereo not drawn),117 to 119
14,O=C(O)c1ccc(Oc2ccc(Cl)cc2)cc1,161 to 164
15,Nc1ccc([C@@H](O)CNC[C@@H]2CCc3cc(S(=O)(=O)Nc4ccc(-n5nnn(CCCC6CCCC6)c5=O)cc4)ccc3O2)cn1,99.3 to 99.7
16,CC(=NNc1ccc([N+](=O)[O-])cc1)c1ccccc1,186 to 188
17,C=CC[C@H](CC(=O)OC(C)(C)C)C(=O)N[C@H](C(=O)N[C@H](C)c1ccccc1)C(C)(C)C,123 to 126
18,COCCCOc1ccc(CCCO)c(Oc2ncc(C(F)(F)F)cc2Cl)c1,68.7 to 70.9
19,COC1Nc2c(ccc(C)c2O)C(=O)N2CCCC12 (stereo not drawn),152 to 156
20,CCC(=O)Nc1ccc(-c2ccnc3c(C(=O)c4ccccc4)cnn23)cc1,211 to 213
21,CC(C)n1c2cc(Cl)ccc2c2oc(C(=O)Cl)cc21,141 to 142
22,CCNC(=S)NC1=Nc2ccc(OC(F)(F)F)cc2CS1,169 to 172
23,Cc1oc2ccccc2c1C(=O)N(Cc1ccccc1)Cc1ccc2c(Br)c(OCC#N)ccc2c1,145 to 146

row,SMILES,melting point [°C]
1,CCOC(=O)c1cc(=O)c2ccccc2[nH]1,210 to 212
2,CC1N=C(c2ccccc2)OC(c2ccccc2)C1OC(=O)Nc1ccccc1 (stereo not drawn),150
3,CC(C)N1CN(C(=O)c2c(F)cccc2F)C(=O)N(c2ccc(Cl)cc2)C1,130 to 131
4,Cc1cc(N)cc(C)c1S(=O)(=O)NCCSCCN,150 to 160
5,COC(=O)Cc1ccc(OCc2ccc(-c3ccccc3)cc2)cc1,115 to 116
6,CC(C#CC1=C(C)C(O)C(O)CC1(C)C)=CCO (stereo not drawn),115 to 117
7,CCOc1cc(C)ccc1C1CCN(CCCCNC(=O)c2ccc(-c3ccc(C(F)(F)F)cc3)cc2)CC1,191
8,COc1ccc(C(=O)Nc2ccccc2C(=O)NCCCC(=O)O)c(O)c1,201 to 203
9,CC1Nc2cnccc2N(C)n2cccc21 (stereo not drawn),157 to 160
10,COc1coc2cc(NS(C)(=O)=O)c(Oc3ccccc3)cc2c1=O,164 to 166
11,O=C(NC1(C(=O)O)CC1)OCCOC(=O)c1ccccc1,174 to 176
12,COc1ccc(CCNC(=O)Cc2ccc(C(=O)c3ccccc3)cc2)cc1OC,113 to 114
13,COc1ccc(C(N)CCO)cc1OC (stereo not drawn),63.5 to 65.5
14,O=c1c2ccccc2nc(-c2cc(-c3ccccc3)c(N3CCOCC3)s2)n1-c1ccc(Cl)cc1,223 to 224
15,CCN(CC)C(=O)CCc1nc(-c2cccc(OC)c2)nc2ccccc12,87
16,CNC(=O)N(Cc1ccc(C(C)(C)C)cc1)NC(=O)OC(C)(C)C,124 to 129
17,CCCCCCOc1cc(-c2ccc3cc4c(cc3c2)C(C)(C)CCC4(C)C)ccc1C(=O)OC,102 to 104
18,NC(=O)c1ccc2cc(O)ccc2c1,205 to 206
19,CCCCOCCOc1ccc(-c2ccc3c(c2)C=C(C(=O)Nc2ccc(CC(=O)c4nccn4CCC)cc2)CCN3CC(C)C)cc1,136 to 138
20,CCN(CC)CC#CC(=O)Nc1ccc2ncc(C#N)c(Nc3cccc(Br)c3)c2c1,133 to 135
21,CCCc1ncc(C(=O)OCC)c(NCc2ccc(-c3ccccc3-c3nnnn3C(c3ccccc3)(c3ccccc3)c3ccccc3)cc2)n1,132 to 133
22,Cc1ccc2c(c1)c(N1CCNCC1)c(C#N)c(=O)n2Cc1ccccc1,152
23,CCOC(=O)C1C2C1S(=O)(=O)CC2(N)C(=O)OCC (stereo not drawn),80 to 83

row,SMILES,melting point [°C]
1,CCc1ccccc1C(N)=NO,54 to 55
2,COC(=O)c1ccc(OCCNC(=O)C2Cc3ccccc3N2S(=O)(=O)c2ccc(-c3ccc(F)cc3)cc2)cc1F (stereo not drawn),77 to 81
3,CCCCCCC1CC(=O)C=C(N)C1 (stereo not drawn),113
4,CC(C)(C)OC(=O)N1CCn2c(c(C(N)=O)c(C#N)c2-c2ccccc2)C1,214 to 215
5,Cc1cc(C(=O)Nc2cc(Oc3ccc4nc(NC(=O)C5CC5)cn4n3)ccc2Cl)n(C)n1,255
6,CCOC(OCC)c1ccc(C(O)(c2ccc3nc(OC)cc(-c4cccc(Cl)c4)c3c2)c2cncn2C)cc1 (stereo not drawn),80
7,COc1c(NC(=O)Nc2ccc(Oc3cc(C)nc(C)n3)c3ccccc23)cc(C(F)(F)F)cc1NS(C)(=O)=O,212 to 213
8,CCS(=O)(=O)N[C@H](C(=O)NCCc1ccc(OC/C=C\c2ccc(Cl)cc2)c(OC)c1)C(C)C,141 to 143
9,Cc1ccc2oc(=O)c(NC(=O)Nc3ccc(F)cc3F)c(-c3ccccc3C)c2c1,213 to 214
10,O=C(CCl)N1CCSC1COc1ccccc1O (stereo not drawn),89 to 91
11,CCCCN1CCC(CCC(=O)c2ccc(N)nc2OC)CC1,85 to 89
12,CCC(=O)c1cc(-c2cccc(OCc3ccc(COC(=O)c4ccccc4)c(COC(=O)c4ccccc4)c3)c2)cs1,117
13,COc1ccc(CC(C)NC(=O)N(C)O)cc1OC (stereo not drawn),78 to 80
14,Nc1cncc(NC(=S)NC2CCCCC2)c1,114 to 116
15,CCN(CC)CCOc1ccc(C#CC(C)(C)O)cc1,64
16,COc1ccc(-c2nc(N3CCOCC3)sc2-c2ccc(OC)cc2)cc1,133 to 135
17,CCOC(=O)c1cc2c(nc1C)C(=Cc1ccc(OC(C)=O)cc1)CCC2,112
18,COc1cc(-c2oc3ccccc3c(=O)c2C(=O)NCCCCN2CCN(c3ccccn3)CC2)cc(OC)c1OC,168 to 173
19,CC(=O)Nc1nc2c(Oc3cc(-c4ccc(C(F)(F)F)cc4OS(=O)(=O)C(F)(F)F)ncn3)cccc2s1,209 to 212
20,CC(C)NC(=O)Nc1ccc([N+](=O)[O-])cc1O,160 to 161
21,C=CCCCCCCCCc1nc2c(s1)NCCCC2,94 to 95
22,CCOC(=O)c1ccccc1Nc1c([N+](=O)[O-])cc(C(F)(F)F)cc1[N+](=O)[O-],152 to 154
